The text below walks through data of patent publication US8962845B2, “Pyrazole compounds” (National Health Research Institutes, priority 2011, dated 2015).

Molecules are shown by their SMILES.

One assay deals with male C57BL/6 mice. The experiment in a line: Tetrad response test (body temperature, tail-flick after CP55,940). It counts as in vivo. Particulars: CP55,940 1 mg/kg i.p. As to the method: Body temperature and tail-flick responses were measured by rectal thermometer (Natsume, Japan) and tail-flick analgesia meter RS232 (Columbus, USA), respectively, in male C57BL/6 mice. One hour after oral administration of a test compound dissolved in DMSO/Tween 80/H2O (1/1/8 by volume), 1 mg/kg of CP55,940 in saline containing 0.5% DMSO was injected intraperitoneally. Body temperature was measured at a time point of 30 and 65 min, and tail flick response was measured at a time point of 35 min after the injection.

Assay [1] concerns estrogen deficiency-induced osteoporosis mice. Briefly: Treatment of estrogen deficiency-induced osteoporosis mice. In kind it is in vivo. As to conditions: ovariectomized mice, 5 days per week for 2, 4, and 8 weeks; for trabecular bone microstructure: μCT. As to the method:
Three-month-old female mice were subjected to bilateral ovariectomy or sham operation. Two weeks postoperatively, a CB1 antagonist (i.e., compounds 10, 63, and 119) or vehicle was administered 5 days per week for 2, 4, and 8 weeks. Bone mineral density and bone mineral contents in femurs, tibiae, and L1-L5 spine were measured by dual energy x-ray absorptiometry. Trabecular bone microstructure (i.e., trabecular bone volume, thickness, number, separation, porosity, and bone volume index) in femurs, tibiae and spine were analyzed by μCT scanning Mechanical strength of the bones was detected by a material test machine.

The next assay relates to osteoarthritic rats. Briefly: ACLT-induced knee osteoarthritis. Particulars: 8 weeks. In kind it is in vivo, Sprague-Dawley rats. As to the method:
Four-month-old male Sprague-Dawley rats were anesthetized using intramuscular atropine (1 mg/kg) and intraperitoneal pentobarbital. The left knees of rats underwent medial parapatellar arthrotomy and transection of the anterior cruciate ligament (ACLT) to induce knee osteoarthritis. The osteoarthritic rats were given a CB1 antagonist (i.e., compounds 10, 63, and 119) or vehicle for 8 weeks. Knee joint radiography was evaluated by a mammography system. Gait profiles of joints in osteoarthritic rats were analyzed by a CatWalk system. Joint morphology was histologically evaluated by a Mankin scoring system.

The next assay has as its system diabetic rats. The experiment in a line: Streptozotocin-induced diabetic nephropathy and kidney fibrosis. In kind it is in vivo, Wistar rats. As to conditions: 4 weeks; for kidney fibrosis: periodic acid-Schiff staining. As to the method:
Three-month-old male Wistar rats were given intraperitoneal streptozotocin (50 mg/kg) to induce diabetes. Two weeks later, diabetic rats that had fasting blood glucose levels of […] were selected for studies. Caged in a metabolic cage system, the diabetic rats were administered a CB1 antagonist (i.e., compounds 10, 63, and 119) for 4 weeks while their urine was collected. To evaluate renal function, protein and creatinine levels in urine were measured by ELISA. To evaluate renal fibrosis, kidneys were dissected, fixed, paraffin wax embedded, and sectioned for histologic assessment after periodic acid-Schiff staining.

The test system of the next assay is diet-induced obese mice. The experiment in a line: Treatment of diet-induced obese mice. It counts as in vivo, C57BL/6 mice. Particulars: 21 days. As to the method: Six-week-old C57BL/6 mice were given high-fat diet (Research Diet D 12451; 45% fat, 20% protein, and 35% carbohydrate) for more than 12 weeks before treated with a test compound. Mice weight matched were assigned to different groups and orally gavaged once daily with a vehicle (10% DMSO/10% Tween 80/80% H2O) or a test compound at a defined dosage (e.g., 10 and 20 mg/kg) for at least two weeks. The sum of food taken for each treatment and the body weight were measured daily.

For `O=C(NN1CCCCC1)c1nn(-c2ccc(Cl)cc2Cl)c(-c2ccc(Cl)cc2)c1CNS(=O)(=O)N1CCCC1` [Compound 119, 5-(4-Chlorophenyl)-1-(2,4-dichlorophenyl)-N-(piperidin-1-yl)-4-((pyrrolidine-1-sulfonamido)methyl)-1H-pyrazole-3-carboxamide], in the assay with male C57BL/6 mice (oral dose up to 100 mg/kg), the “reversal of CB1 agonist-induced analgesic response” value is on record as “did not reverse or slightly reversed” and the “reversal of CB1 agonist-induced hypothermia” value is on record as “did not reverse or slightly reversed”. Further, in assay [1], the bone mineral density entry is recorded as “increase” and the trabecular bone microstructure entry was “improvement”. Also, the Mankin score result with osteoarthritic rats is given as “reduction”. Also, in the assay on diabetic rats, the urine albumin level result is listed as “decrease” and the kidney fibrosis result was “reduction”.
With `Cc1c(C(=O)NN2CCCCC2)nn(-c2ccc(Cl)cc2Cl)c1-c1ccc(Cl)cc1` [rimonabant, reference compound], in the assay on male C57BL/6 mice (dose as low as 2 mg/kg), the “reversal of CB1 agonist-induced analgesic response” value is “significantly reversed” and the “reversal of CB1 agonist-induced hypothermia” value is recorded as “significantly reversed”. Also, in the assay on diet-induced obese mice (rimonabant comparison, dose not given), the relative weight-loss rate is recorded as 29.1%.
In the case of `O=C(NN1CCCCC1)c1nn(-c2ccc(Cl)cc2Cl)c(-c2ccc(C#Cc3ccc(C(F)(F)F)cc3)s2)c1CNS(=O)(=O)N1CCCC1` [Compound 10, 1-(2,4-Dichlorophenyl)-N-(piperidin-1-yl)-4-((pyrrolidine-1-sulfonamido)methyl)-5-(5-((4-(trifluoromethyl)phenyl)ethynyl)thiophen-2-yl)-1H-pyrazole-3-carboxamide], in the assay on male C57BL/6 mice (oral dose up to 100 mg/kg), the “reversal of CB1 agonist-induced analgesic response” value was “did not reverse or slightly reversed” and the “reversal of CB1 agonist-induced hypothermia” value is on record as “did not reverse or slightly reversed”. The relative weight-loss rate with diet-induced obese mice (10 mg/kg group, oral once daily) came out at 26.4%. Besides, the relative weight-loss rate in the assay on diet-induced obese mice (20 mg/kg group, oral once daily) is on record as 32.8%. Also, in assay [1], the bone mineral density entry is reported as “increase” and the trabecular bone microstructure result is “improvement”. Moreover, the Mankin score entry in the assay with osteoarthritic rats is “reduction”. For the same molecule, in the assay on diabetic rats, the urine albumin level entry is “decrease” and the kidney fibrosis entry is reported as “reduction”.
For `CCCC#Cc1ccc(-c2c(CNS(=O)(=O)N3CCCCC3)c(C(=O)NN3CCCCC3)nn2-c2ccc(Cl)cc2Cl)s1` [Compound 63, 1-(2,4-Dichlorophenyl)-5-(5-(pent-1-ynyl)thiophen-2-yl)-N-(piperidin-1-yl)-4-((piperidine-1-sulfonamido)methyl)-1H-pyrazole-3-carboxamide], in the assay on male C57BL/6 mice (oral dose up to 100 mg/kg), the “reversal of CB1 agonist-induced analgesic response” value is recorded as “did not reverse or slightly reversed” and the “reversal of CB1 agonist-induced hypothermia” value was “did not reverse or slightly reversed”. Also, in assay [1], the bone mineral density result is “increase” and the trabecular bone microstructure entry is “improvement”. In addition, the Mankin score entry in the assay with osteoarthritic rats is reported as “reduction”. In the assay with diabetic rats, the urine albumin level result is “decrease” and the kidney fibrosis result is recorded as “reduction”.
